Laboratory results reported in patent US11351173B2, “Substituted pyrrolo[1,2-a]pyrimidines and their use in the treatment of medical disorders” (Bial—R&D Investments, S.A., priority 2014, dated 2022).
In brackets after ≈: the same amount, converted by molar mass.

Assays:
[1] = Compound solubility in water; conditions: water; for solubility: Compound Solubility in Water
[2] = target: T1, glucocerebrosidase (Gcase) (Homo sapiens, UniProt P04062); test: Glucocerebrosidase (Gcase) activation assay, 4-methylumbelliferyl-beta-D-glucopyranoside substrate, fluorescence readout; format: biochemical; conditions: for Percent Gcase Activation, 0.1 μM Test Compound / activation at 0.1 µM: test compound at 0.1 μM; for Percent Gcase Activation, 1 μM Test Compound / activation at 1 µM: test compound at 1.0 μM; for activation at 0.1 µM: read-out: Percent Gcase Activation, 0.1 μM Test Compound; for activation at 1 µM: read-out: Percent Gcase Activation, 1 μM Test Compound
T1 construct: micellar solution containing 10 nM GCase and 100 nM saposin C
T1 sequence (P04062 40-536): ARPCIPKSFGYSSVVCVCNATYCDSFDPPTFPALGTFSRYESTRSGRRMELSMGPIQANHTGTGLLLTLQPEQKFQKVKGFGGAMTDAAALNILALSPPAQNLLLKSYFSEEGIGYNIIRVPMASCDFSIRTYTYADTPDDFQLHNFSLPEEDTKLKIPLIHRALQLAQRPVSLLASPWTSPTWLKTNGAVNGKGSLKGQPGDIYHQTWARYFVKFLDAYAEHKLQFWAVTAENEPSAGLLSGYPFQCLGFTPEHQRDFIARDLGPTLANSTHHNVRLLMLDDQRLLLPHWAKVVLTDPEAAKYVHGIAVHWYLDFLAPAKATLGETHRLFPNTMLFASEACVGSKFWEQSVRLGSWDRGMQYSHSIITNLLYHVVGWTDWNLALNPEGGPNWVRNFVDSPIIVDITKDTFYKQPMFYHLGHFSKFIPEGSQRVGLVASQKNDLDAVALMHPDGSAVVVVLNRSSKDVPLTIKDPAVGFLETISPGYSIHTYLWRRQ
Procedure, shortened: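 Fluorescence (ex 365 nm, em 440 nm) read after glycine pH 12.5 stop of a 15 min room-temperature reaction. GCase 10 nM plus saposin C 100 nM in PS/triton micelles, pH 4.7, preincubated 30 min with compound; substrate solution held 2 mM 4-MU-beta-glucoside. Screened at 1.0 and 0.1 μM; 8-point, 3-fold curves from 5 μM top.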

Compound Solubility in Water [1] | Percent Gcase Activation, 0.1 μM Test Compound [2] | Percent Gcase Activation, 1 μM Test Compound [2] | solubility ([1]; in water) | activation at 0.1 µM [2] | activation at 1 µM [2] | solubility [1] | Compound
1.0 µg/mL | *** (greater than 20% Gcase activation) | +++ (Gcase activation greater than 60%) |  |  |  |  | Cc1cc(C)n2ccc(C(=O)NC3CCC(c4cccs4)CC3)c2n1 (centres unmarked) [III-188]
 |  |  | 28.5 µg/mL (≈ 90.4 µM) | < 10% | < 30% |  | Cc1cc(C)n2ccc(C(=O)NC3CCC4OCOC4C3)c2n1 (centres unmarked) [III-229]
 |  |  |  | > 20% | > 60% | 0.01 µg/mL (≈ 0.0257 µM) | Cc1cc(C)n2ccc(C(=O)NC3Cc4ccc(-c5cscn5)cc4C3)c2n1 (centres unmarked) [III-192]
17.2 µg/mL | *** (greater than 20% Gcase activation) | +++ (Gcase activation greater than 60%) |  |  |  |  | CCCCCOC1CCC(NC(=O)c2ccn3c(C)cc(C)nc23)C1 (centres unmarked) [III-177]
 |  |  | 1.3 µg/mL (≈ 3.49 µM) | 10 to 20% | > 60% |  | Cc1cc(C)n2ccc(C(=O)NC3Cc4ccc(-c5ncco5)cc4C3)c2n1 (centres unmarked) [III-242]
 |  |  | 12.5 µg/mL (≈ 36.8 µM) | 10 to 20% | > 60% |  | Cc1ccnc2c(C(=O)NC3(C)CCOc4ccc(F)cc43)ccn12 (centres unmarked) [III-264]
 |  |  |  | 10 to 20% | > 60% | 0.06 µg/mL (≈ 0.162 µM) | Cc1cc(C)n2ccc(C(=O)NC3(C)CCOc4ccc(F)c(F)c43)c2n1 (centres unmarked) [III-173]
 |  |  |  | > 20% | > 60% | 0.1 µg/mL (≈ 0.251 µM) | Cc1cc(C)n2ccc(C(=O)Nc3ccc4c(c3)C(Oc3cccnc3)CC4)c2n1 (centres unmarked) [III-120]
 |  |  | 3.3 µg/mL (≈ 10.3 µM) | 10 to 20% | > 60% |  | Cc1cc(C)n2ccc(C(=O)NC3COCc4ccccc43)c2n1 (centres unmarked) [III-210]
 |  |  |  | > 20% | > 60% | 1.9 µg/mL (≈ 5.38 µM) | Cc1cc(C)n2ccc(C(=O)NC3(C)CCOc4c(F)cccc43)c2n1 (centres unmarked) [III-133]
 |  |  | 13.6 µg/mL (≈ 38.9 µM) | 10 to 20% | > 60% |  | COC1CCC(NC(=O)c2ccn3c(C)cc(C)nc23)c2ccccc21 (centres unmarked) [III-212]
 |  |  |  | < 10% | 30 to 60% | 9.2 µg/mL (≈ 23.3 µM) | COCCOc1ccc2c(c1)C(NC(=O)c1ccn3c(C)cc(C)nc13)CCO2 (centres unmarked) [III-170]
 |  |  | 0.6 µg/mL (≈ 1.61 µM) | < 10% | 30 to 60% |  | Cc1cc(C(F)(F)F)n2ccc(C(=O)NC3CCCc4ccccc43)c2n1 (centres unmarked) [III-253]
 | *** (greater than 20% Gcase activation) | +++ (Gcase activation greater than 60%) | 0.06 µg/mL (≈ 0.181 µM) |  |  |  | Cc1cc(C)n2ccc(C(=O)Nc3ccc(-c4ncco4)cc3)c2n1 [III-274]
 |  |  | 21.3 µg/mL (≈ 60.8 µM) | < 10% | < 30% |  | CCC(F)(F)CN1CCC(NC(=O)c2ccn3c(C)cc(C)nc23)C1 (centres unmarked) [III-205]
 |  |  |  | 10 to 20% | > 60% | 2 µg/mL (≈ 6.82 µM) | Cc1cc(C)n2ccc(C(=O)N[C@@H](C)c3ccccc3)c2n1 [III-166]
 |  |  |  | < 10% | 30 to 60% | 1.9 µg/mL (≈ 5.36 µM) | Cc1cc(C)n2ccc(C(=O)NC3CCN(c4ccsc4)CC3)c2n1 [III-115]
 |  |  | 15.7 µg/mL (≈ 49 µM) | < 10% | < 30% |  | Cc1cc(C)n2ccc(C(=O)NC3CCCc4ccncc43)c2n1 (centres unmarked) [III-227]
 |  |  | 7.6 µg/mL (≈ 22.4 µM) | < 10% | > 60% |  | Cc1ccnc2c(C(=O)NC3(C)CCOc4c(F)cccc43)ccn12 (centres unmarked) [III-258]
 |  |  |  | < 10% | < 30% | 17.2 µg/mL (≈ 48.8 µM) | Cc1cc(C)n2ccc(C(=O)Nc3ccc(OCCCCN)cc3)c2n1 [III-19]
 |  |  |  | < 10% | 30 to 60% | < 0.1 µg/mL | Cc1cc(C)n2ccc(C(=O)Nc3ccc(N4CCCCC4)cc3)c2n1 [III-17]
 |  |  |  | > 20% | > 60% | 0.2 µg/mL (≈ 0.569 µM) | Cc1cc(C)n2ccc(C(=O)NC3CC=C(c4cccs4)CC3)c2n1 (centres unmarked) [III-186]
17.4 µg/mL | * (less than 10% Gcase activation) | + (less than 30% Gcase activation) |  |  |  |  | Cc1cc(C)n2ccc(C(=O)NC3CCC4(CCCO4)CC3)c2n1 (centres unmarked) [III-142]
4.6 µg/mL |  |  |  | 10 to 20% | > 60% |  | CCCCCOC1CCC(NC(=O)c2ccn3c(C)cc(C)nc23)C1 (centres unmarked) [III-176]
 | * (less than 10% Gcase activation) | + (less than 30% Gcase activation) | 0.2 µg/mL (≈ 0.577 µM) |  |  |  | Cc1cc(C)n2ccc(C(=O)Nc3ccc(-c4cnn(C)c4)nc3)c2n1 [III-283]
 |  |  |  | > 20% | > 60% | 9.2 µg/mL (≈ 26.8 µM) | CCCCCO[C@H]1CC[C@H](NC(=O)c2ccn3c(C)cc(C)nc23)C1 [III-178]
 |  |  | 13.8 µg/mL (≈ 34.7 µM) | < 10% | < 30% |  | Cc1cc(C)n2ccc(C(=O)NC3CCCc4ccc(S(C)(=O)=O)cc43)c2n1 (centres unmarked) [III-230]
1.4 µg/mL | * (less than 10% Gcase activation) | +++ (Gcase activation greater than 60%) |  |  |  |  | Cc1cc(C)n2ccc(C(=O)NC3CCCC34CCCCO4)c2n1 (centres unmarked) [III-139]
 |  |  |  | < 10% | < 30% | 30.6 µg/mL (≈ 89.9 µM) | Cc1cc(C)n2ccc(C(=O)NC3CCc4nc(C)sc4C3)c2n1 (centres unmarked) [III-111]

Continued, compound first:

Compound | Compound Solubility in Water [1] | Percent Gcase Activation, 0.1 μM Test Compound [2] | Percent Gcase Activation, 1 μM Test Compound [2] | solubility ([1]; in water) | activation at 0.1 µM [2] | activation at 1 µM [2] | solubility [1]
Cc1cc(C2CC2)n2ccc(C(=O)N[C@H]3CC[C@H](OCCCCC(F)(F)F)CC3)c2n1 [III-47] |  |  |  |  | < 10% | > 60% | 0.3 µg/mL (≈ 0.686 µM)
C#CCCCOC1CCC(NC(=O)c2ccn3c(C)cc(C)nc23)C1 (centres unmarked) [III-272] |  |  |  | 15.8 µg/mL (≈ 46.5 µM) | < 10% | > 60% | 
Cc1cc(O)n2ccc(C(=O)NC3CCCc4ccccc43)c2n1 (centres unmarked) [III-56] |  |  |  |  | < 10% | < 30% | 3.7 µg/mL (≈ 11.5 µM)
Cc1cc(Br)nc2c(C(=O)Nc3ccc(-c4cocn4)cc3)ccn12 [III-40] |  |  |  |  | 10 to 20% | > 60% | 0.3 µg/mL (≈ 0.755 µM)
O=C(NC1CCCc2ccccc21)c1ccn2c(C(F)F)cc(C(F)F)nc12 (centres unmarked) [III-24] |  |  |  |  | > 20% | > 60% | 0.2 µg/mL (≈ 0.511 µM)
Cc1cc(C2CC2)n2ccc(C(=O)N[C@H]3CC[C@H](OCCCC(F)(F)F)CC3)c2n1 [III-46] |  |  |  |  | < 10% | > 60% | 1.7 µg/mL (≈ 4.01 µM)
CCCCO[C@H]1CC2CCC(C1)[C@H]2NC(=O)c1ccn2c(C)cc(C)nc12 [III-182] |  |  |  |  | > 20% | > 60% | 0.6 µg/mL (≈ 1.62 µM)
C#CCCCO[C@H]1CC[C@H](NC(=O)c2ccn3c(C)cc(C)nc23)CC1 [III-194] |  |  |  |  | 10 to 20% | > 60% | 4.5 µg/mL (≈ 12.7 µM)
CO[C@H]1CC[C@H](C(C)(C)NC(=O)c2ccn3c(C)cc(Cl)nc23)CC1 [III-75] |  |  |  |  | 10 to 20% | > 60% | 5.3 µg/mL (≈ 14.6 µM)
Cc1cc(C)n2ccc(C(=O)N[C@H]3CC[C@H](OC4CC4)CC3)c2n1 [III-286] |  |  |  | 8.8 µg/mL (≈ 26.9 µM) | 10 to 20% | > 60% | 
Cc1cc(C)n2ccc(C(=O)N[C@H]3CC[C@H](OC4CCC4)CC3)c2n1 [III-101] |  |  |  |  | > 20% | > 60% | 8.5 µg/mL (≈ 24.9 µM)
Cc1ccnc2c(C(=O)Nc3ccc(-c4ncco4)cc3)ccn12 [III-256] |  |  |  | 4 µg/mL (≈ 12.6 µM) | < 10% | > 60% | 
Cc1cc(C)n2ccc(C(=O)N[C@H]3CC[C@@H](OCC(C)(C)C)CC3)c2n1 [III-94] |  |  |  |  | > 20% | > 60% | 1.8 µg/mL (≈ 5.03 µM)
Cc1cc(C)n2ccc(C(=O)NC3CCC(C4CCCO4)CC3)c2n1 (centres unmarked) [III-200] | 12.4 µg/mL | * (less than 10% Gcase activation) |  |  |  |  | 
C#Cc1cccc(C(C)(C)NC(=O)c2ccn3c(COC)cc(C)nc23)c1 [III-63] |  |  |  |  | 10 to 20% | > 60% | 0.8 µg/mL (≈ 2.21 µM)
Cc1cc(C)n2ccc(C(=O)N[C@H]3CC[C@H](OCC(C)(C)C)CC3)c2n1 [III-93] |  |  |  |  | > 20% | > 60% | 6.2 µg/mL (≈ 17.3 µM)
Cc1ccnc2c(C(=O)N[C@H](C)c3ccc(F)cc3)ccn12 [III-261] |  |  |  | 12.7 µg/mL (≈ 42.7 µM) | 10 to 20% | 30 to 60% | 
C#Cc1cccc(C(C)(C)NC(=O)c2ccn3c(COC)cc(COC)nc23)c1 [III-157] |  |  |  |  | > 20% | > 60% | 2.6 µg/mL (≈ 6.64 µM)
COCc1cc(C)n2ccc(C(=O)NC(C)(C)c3ccc(-c4cocn4)cc3)c2n1 [III-48] |  |  |  |  | 10 to 20% | > 60% | 3.5 µg/mL (≈ 8.65 µM)
